Test results published in paper PMC7022188 (Proceedings of the National Academy of Sciences of the …, 2020).
pKd: −log10 of the molar value.

Tests used:
[1] = biological target: T1, ctPrp2-ctSpp2_211–254 complex (ctPrp2_270–921 with ctSpp2G-patch) (Thermochaetoides thermophila, UniProt G0SEG4); assay: ITC; type: binding
T1 sequence (G0SEG4 270-921): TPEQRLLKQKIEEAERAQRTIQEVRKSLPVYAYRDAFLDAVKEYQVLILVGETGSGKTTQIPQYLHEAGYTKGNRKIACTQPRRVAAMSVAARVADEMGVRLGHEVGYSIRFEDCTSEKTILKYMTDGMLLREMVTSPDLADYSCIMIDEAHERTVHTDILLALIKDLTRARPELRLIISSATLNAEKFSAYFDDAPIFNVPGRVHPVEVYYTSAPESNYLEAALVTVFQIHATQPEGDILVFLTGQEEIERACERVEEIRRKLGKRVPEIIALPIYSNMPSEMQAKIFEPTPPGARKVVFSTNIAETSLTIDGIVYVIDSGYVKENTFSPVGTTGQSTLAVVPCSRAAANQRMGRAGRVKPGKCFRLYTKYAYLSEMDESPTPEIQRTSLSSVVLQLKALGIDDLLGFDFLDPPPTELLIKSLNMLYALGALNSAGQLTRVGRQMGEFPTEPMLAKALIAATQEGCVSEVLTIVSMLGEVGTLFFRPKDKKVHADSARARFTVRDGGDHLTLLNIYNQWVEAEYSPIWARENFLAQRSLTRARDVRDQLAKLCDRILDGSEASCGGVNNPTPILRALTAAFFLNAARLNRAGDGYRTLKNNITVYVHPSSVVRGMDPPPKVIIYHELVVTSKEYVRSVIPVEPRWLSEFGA
T1 sequence (G0SFN3 211-254 partner): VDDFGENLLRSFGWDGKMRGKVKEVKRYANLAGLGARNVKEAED

[2] = biological target: ctPrp2 as used for ITC and for in-solution cross-linking (Chaetomium thermophilum); assay: ITC

pKd [1] | pKd [2] | Molecule
~6.76 |  | Nc1ncnc2c1ncn2[C@@H]1O[C@H](COP(=O)(O)OP(=O)(O)O)[C@@H](O)[C@H]1O [ADP]
 | 6.14 | ctSpp2_(211–254), G-patch domain of Spp2 from Chaetomium thermophilum (domain or fragment)
